Measurements as given in PMC10815079, “α-L-Fucosidases from an Alpaca Faeces Metagenome: Characterisation of Hydrolytic and Transfucosylation Potential” (International Journal of Molecular Sciences, 2024).

Tests used:
Experiment in all cases: p-nitrophenol release at […] nm, Michaelis-Menten fit
Assay type in all cases: biochemical, uncultured bacterium (alpaca faeces metagenome)
Settings in all cases: 50 mM potassium phosphate pH 7.5, 20 °C
Fuc25C = tested on: Fuc25C
Fuc25A = tested on: Fuc25A
Fuc25D = tested on: Fuc25D
Fuc25E = tested on: Fuc25E

C[C@@H]1O[C@@H](Oc2ccc([N+](=O)[O-])cc2)[C@@H](O)[C@H](O)[C@@H]1O [pNP-αFuc]
Km (Fuc25C): 1400 ± 374 µM | Km (Fuc25A): 334 ± 21.4 µM | Km (Fuc25D): 79.7 ± 8.6 µM | Km (Fuc25E): 85.1 ± 12.9 µM
